Test results reported in patent US10752587B2, “Homobispiperidinyl derivatives as liver X receptor beta agonists, compositions and their use” (Merck Sharp & Dohme Corp., priority 2015, dated 2020).
Read-outs that look alike come from different tables or passages of the source.

Key:
[1] = biological target: T1, glutathione-S-transferase (GST) tagged LXRbeta LBD (ligand binding domain) (Homo sapiens, UniProt P55055); test: LanthaScreen TR-FRET Liver X Receptor Coactivator Assay, co-activator recruitment to LXRbeta LBD; type: biochemical; conditions: for EC50: potency (Inflection Point, IP), co-activator recruitment to LXRbeta LBD, in relation to T0901317; for Emax: read-out: LXR beta Activity @ max dose (%)
T1 construct: purchased Invitrogen pv4658.pps
T1 sequence (P55055 222-460 limits assumed): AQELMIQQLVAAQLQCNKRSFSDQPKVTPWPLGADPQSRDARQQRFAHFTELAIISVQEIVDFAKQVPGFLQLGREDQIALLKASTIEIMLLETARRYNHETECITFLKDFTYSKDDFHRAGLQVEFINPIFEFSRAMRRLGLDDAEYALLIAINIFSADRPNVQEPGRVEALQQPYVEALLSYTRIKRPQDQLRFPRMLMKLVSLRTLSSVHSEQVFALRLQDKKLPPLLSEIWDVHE
Outline: (§1)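 GST-tagged LBD added to test compound, then fluorescein-labelled coactivator peptide plus terbium anti-GST antibody; incubated at room temperature, TR-FRET read. Potency given as inflection point and efficacy as Emax relative to reference dual agonist T0901317.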

[2] = biological target: T2, glutathione-S-transferase (GST) tagged LXRalpha LBD (ligand binding domain) (Homo sapiens, UniProt Q13133); test: LanthaScreen TR-FRET Liver X Receptor Coactivator Assay, co-activator recruitment to LXRalpha LBD; type: biochemical; conditions: for LXR alpha IP (nM) / EC50: potency (Inflection Point, IP), co-activator recruitment to LXRalpha LBD, in relation to T0901317; for Emax: read-out: LXR alpha Activity @ max dose (%)
T2 construct: purchased Invitrogen pv4655
T2 sequence (Q13133 209-447 limits assumed): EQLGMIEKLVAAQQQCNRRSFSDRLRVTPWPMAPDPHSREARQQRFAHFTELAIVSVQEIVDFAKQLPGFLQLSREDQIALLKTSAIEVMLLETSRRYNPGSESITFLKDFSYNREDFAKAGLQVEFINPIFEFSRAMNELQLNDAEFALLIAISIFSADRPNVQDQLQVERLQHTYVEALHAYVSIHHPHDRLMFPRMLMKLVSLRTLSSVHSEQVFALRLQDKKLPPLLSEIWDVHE
Outline: as §1

[3] = efficacy at max dose, in relation to reference dual agonist T0901317

SMILES | LXR alpha IP (nM) [2] | Emax [2, 3] [%] | Emax [1, 3] [%] | EC50 ([1]; read-out: LXR beta IP) [nM] | EC50 ([2]; read-out: LXR alpha IP) [nM] | LXR alpha Activity @ max dose (%) [2, 3] [%] | EC50 ([1]; LXR beta IP (nM)) [nM] | Emax [1] [%] | Emax [2] [%] | EC50 ([2]; LXR alpha IP (nM)) [nM]
CN(C)C(=O)c1ccc(N2CCC(CC3CCN(C(=O)C(O)(c4ccccc4)C4CCCC4)CC3)CC2)nc1Cl (stereo not drawn) [Example 7-94, 2-chloro-6-[4-({1-[cyclopentyl(hydroxy)phenylacetyl]piperidin-4-yl}methyl)piperidin-1-yl]-N,N-dimethylpyridine-3-carboxamide] | NO IP |  |  |  |  |  | 72 | 62 | 10 | 
CNC(=O)c1ccc(N2CCC(SC3CCN(C(=O)[C@](O)(c4cccc(OC)c4)C(F)(F)F)CC3)CC2)nc1Cl [Example 11-1, (R)-2-chloro-N-methyl-6-(4-(1-(3,3,3-trifluoro-2-hydroxy-2-(3-methoxyphenyl)propanoyl)piperidin-4-ylthio)piperidin-1-yl)nicotinamide] | NO IP | 17 |  |  |  |  | 17 | 93 |  | 
CN(C)C(=O)c1ccc(N2CCC(CC3CCN(C(=O)C(O)(c4ccccc4)C4CC4)CC3)CC2)nc1Cl (stereo not drawn) [Example 7-99, 2-chloro-6-[4-({1-[cyclopropyl(hydroxy)phenylacetyl]piperidin-4-yl}methyl)piperidin-1-yl]-N,N-dimethylpyridine-3-carboxamide] |  |  |  |  |  |  | 48 | 74 | 20 | 2790
CC(C)c1cccc([C@@](O)(C(=O)N2CCC(C)(CC3CCN(c4ccc(C(=O)N(C)C)c(Cl)c4)CC3)CC2)C(F)(F)F)c1 [Example 2-56, 2-chloro-N,N-dimethyl-4-{4-[(4-methyl-1-{(2R)-3,3,3-trifluoro-2-hydroxy-2-[3-(1-methylethyl)phenyl]propanoyl}piperidin-4-yl)methyl]piperidin-1-yl}benzamide] | NO IP | 2 | 37 | 18 |  |  |  |  |  | 
COc1cccc([C@@](O)(C(=O)N2CCC(CC3CCN(c4ccc(C(=O)N(C)C)cc4)CC3)CC2)C(F)F)c1 [Example 2-130, 4-[4-({1-[(2R)-3,3-difluoro-2-hydroxy-2-(3-methoxy-phenyl)propanoyl]piperidin-4-yl}methyl)piperidin-1-yl]-N,N-dimethyl-benzamide] | NO IP | 0 | 31 | 191 |  |  |  |  |  | 
COc1cccc([C@@](O)(C(=O)N2CCC(CC3CCN(c4cnc(C(=O)N(C)C)c(Cl)c4)CC3)CC2)C(F)(F)F)c1 [Example 2-3, 3-chloro-N,N-dimethyl-5-[4-({1-[(2R)-3,3,3-trifluoro-2-hydroxy-2-(3-methoxyphenyl)propanoyl]piperidin-4-yl}methyl)piperidin-1-yl]pyridine-2-carboxamide] | NO IP | 6 | 50 | 26 |  |  |  |  |  | 
COc1cccc(C(O)(C(=O)N2CCC(CCC3CCN(c4ccc(C(=O)N(C)C)c(Cl)c4)CC3)CC2)C(F)(F)F)c1 (stereo not drawn) [Example 2-163, 2-chloro-N,N-dimethyl-4-[4-(2-{1-[3,3,3-trifluoro-2-hydroxy-2-(3-methoxyphenyl)propanoyl]piperidin-4-yl}ethyl)piperidin-1-yl]benzamide] | NO IP | 0 | 39 | 728 |  |  |  |  |  | 
CN(C(=O)c1ccc(N2CCC(CC3CCN(C(=O)[C@](O)(c4ccccc4)C(F)(F)F)CC3)CC2)cc1Cl)C1CC1 [Example 4-11, 2-chloro-N-cyclopropyl-N-methyl-4-[4-({1-[(2R)-3,3,3-trifluoro-2-hydroxy-2-phenylpropanoyl]piperidin-4-yl}methyl)piperidin-1-yl]benzamide] |  | 38 | 74 | 43 | 402 |  |  |  |  | 
CC(C)c1cccc([C@@](O)(C(=O)N2CCC(CC3CCN(c4ccc(C(=O)N(C)C)cc4)CC3)CC2)C(F)(F)F)c1 [Example 2-125, N,N-dimethyl-4-{4-[(1-{(2R)-3,3,3-trifluoro-2-hydroxy-2-[3-(1-methyl-ethyl)phenyl]propanoyl}piperidin-4-yl)methyl]piperidin-1-yl}benzamide] |  | 15 | 64 | 52 | 459 |  |  |  |  | 
CN(C)C(=O)c1ccc(N2CCC(OC3CCN(C(=O)[C@](O)(c4ccccc4)C(F)(F)F)CC3)CC2)cc1Cl [Example 2-11, 2-chloro-N,N-dimethyl-4-[4-({1-[(2R)-3,3,3-trifluoro-2-hydroxy-2-phenylpropanoyl]piperidin-4-yl}oxy)piperidin-1-yl]benzamide] |  |  | 83 |  | 1110 | 33 |  |  |  | 
C[C@H]1CCCN1C(=O)c1ccc(N2CCC(CC3CCN(C(=O)[C@](O)(c4ccccc4)C(F)(F)F)CC3)CC2)cc1Cl [Example 4-6, (2R)-3-(4-{[1-(3-chloro-4-{[(2S)-2-methyl-pyrrolidin-1-yl]carbonyl}phenyl)piperidin-4-yl]methyl}piperidin-1-yl)-1,1,1-trifluoro-3-trifluoro-3-oxo-2-phenylpropan-2-ol] |  | 39 | 78 | 38 | 331 |  |  |  |  | 
COc1cccc([C@@](O)(C(=O)N2CCC(CC3CCN(c4ccc(C(=O)N(C)C)cc4)CC3)CC2)C(F)(F)F)c1 [Example 2-124, N,N-dimethyl-4-[4-({1-[(2R)-3,3,3-trifluoro-2-hydroxy-2-(3-methoxy-phenyl)propanoyl]piperidin-4-yl}methyl)piperidin-1-yl]benzamide] | NO IP | 4 | 55 | 43 |  |  |  |  |  | 

The next lines start with results.

LXR alpha IP (nM) [2] | Emax [2, 3] [%] | Emax [1, 3] [%] | EC50 ([1]; read-out: LXR beta IP) [nM] | EC50 ([2]; read-out: LXR alpha IP) [nM] | LXR alpha Activity @ max dose (%) [2, 3] [%] | SMILES | EC50 ([1]; LXR beta IP (nM)) [nM] | Emax [1] [%] | Emax [2] [%] | EC50 ([2]; LXR alpha IP (nM)) [nM]
 | 23 | 71 | 153 | 2180 |  | Cc1cc(N2CCC(CC3CCN(C(=O)[C@](O)(c4ccccc4)C(F)(F)F)CC3)CC2)ncc1C(=O)N(C)C [Example 7-3, N,N,4-trimethyl-6-[4-({1-[(2R)-3,3,3-trifluoro-2-hydroxy-2-phenylpropanoyl]piperidin-4-yl}methyl)piperidin-1-yl]pyridine-3-carboxamide] |  |  |  | 
NO IP | 3 | 61 | 7 |  |  | COc1cccc([C@@](O)(C(=O)N2CCC(CC3CCN(c4ccc(C(=O)N(C)C)c(OC)n4)CC3)CC2)C(F)(F)F)c1 [Example 7-19, 2-methoxy-N,N-dimethyl-6-[4-({1-[(2R)-3,3,3-trifluoro-2-hydroxy-2-(3-methoxyphenyl)propanoyl]piperidin-4-yl}methyl)piperidin-1-yl]pyridine-3-carboxamide] |  |  |  | 
NO IP | 8 | 40 | 6 |  |  | CCc1cccc([C@@](O)(C(=O)N2CCC(C)(CC3CCN(c4ccc(C(=O)N(C)C)c(Cl)n4)CC3)CC2)C(F)(F)F)c1 [Example 7-49, 2-chloro-6-[4-({1-[(2R)-2-(3-ethylphenyl)-3,3,3-trifluoro-2-hydroxypropanoyl]-4-methylpiperidin-4-yl}methyl)piperidin-1-yl]-N,N-dimethylpyridine-3-carboxamide] |  |  |  | 
 | 37 | 114 | 20 | 429 |  | Cc1ccccc1C1(C(=O)N2CCC(CC3CCN(c4ccc(C(=O)N(C)C)c(Cl)n4)CC3)CC2)CCC1 [Example 7-56, 2-chloro-N,N-dimethyl-6-{4-[(1-{[1-(2-methylphenyl)cyclobutyl]carbonyl}piperidin-4-yl)methyl]piperidin-1-yl}pyridine-3-carboxamide] |  |  |  | 
